In US12414947B2, “Use of FGFR inhibitors for treatment of idiopathic short stature” (CEDARS-SINAI MEDICAL CENTER, priority 2019, dated 2025):

What was measured:
[1] = test system: Patient normal fibroblasts; assay: Immunoblot analysis for apoptosis markers (FIG. 5); type: cell-based, human
Text: FIG. 5 depicts the effects on apoptosis.

[2] = test system: pERK1/2 and pAKT signaling in Patient normal fibroblast cells; settings: IGF-I 100 ng/ml, IGF-2 100 ng/ml; erdafitinib 0-300 nM
Text: FIG. 4 depicts signaling effects. […] Test working hypothesis using Patient's normal fibroblast cells as the model system. Fibroblasts, grown in αMEM+15% FBS till ˜80% confluency, were serum-starve for 18 hr in αMEM+0.1% BSA.
In vitro assays, with read-outs: signaling (pERK, pAKT), proliferation/survival assays (WST-1).

[3] = Example 3: child with short stature given erdafitinib; type: in vivo, human; settings: six-month period, from the 10%
Text: A child presents with short stature. […] Their height growth velocity increased resulting in a jump in height from the 10% up to the 50% for their age.

[4] = Case report: height growth of patient CC0419 during erdafitinib therapy; type: in vivo, human
Text: FIG. 1 depicts a child's growth chart.
(§1) […], they underwent a biopsy for a second recurrence.

[5] = in vivo
Text: as §1

[6] = test system: Patient normal fibroblast cells; assay: Cell Survival Assay (WST-1) (FIGS. 6, 7); type: cell-based, human
Method: Fibroblasts were seeded 5×10^4 cells/well (96 well format), grow in αMEM+15% for 24 hr. […] WST-1 reagent was added, 10 μl/well, 1 hr, spectrophotometry analysis. 3 wells per test sample. NC, normal control.
Assay set up as described in FIG. 6, except IGF-I (100 ng/ml), IGF2 (100 ng/ml) or FGF2 (40 ng/ml) added as indicated. Cell survival was assayed over 5 days.

COc1cc(OC)cc(N(CCNC(C)C)c2ccc3ncc(-c4cnn(C)c4)nc3c2)c1 [Erdafitinib, erdafitinib]
apoptotic markers, cleaved Caspase 3 and cleaved PARP ([1]; by 24 hrs, erdafitinib treated cells without IGF-I): detected | apoptotic markers when IGF-I was present ([1]; lysates 24 and 48 hr post-treatment, IGF-I 100 ng/ml): not detected (or significantly blunted) | pERK1/2 in presence of ligands (IGF-1, IGF2) [2]: remains erdafitinib-suppressed | height percentile for age [3]: 50% | total growth in height ([4]; 9-month therapy (7 mg then 5 mg orally daily) plus one month after cessation): 14.3 cm | total growth in height ([4]; 9-month therapy plus one month after cessation): 5.63 inches | height percentile ([4]; 10 months from initiation of treatment, from 15th percentile): 70 percentile | growth velocity ([4]; on therapy, from 3.653 cm/year before): 18.06 cm/year | growth velocity (percentile) ([4]; on therapy, from 40% before, wildtype germline FGFR): > 99% | height percentile ([4]; starting ~2 months into therapy, from ~15 percentile): 23 percentile | height percentile ([4]; within one month of initiating treatment, from 15th percentile, child): 48 percentile | Dexa bone scan interpretation [5]: consistent with osteoporosis | GH, random (rating) [5]: normal | IGF-1 Z-score [5]: −1.7 | IGF-I SDS [5]: −1.4 SDS | IGF-II (rating) [5]: normal | IGFBP-3 (rating) [5]: normal | Metabolic panel: creatine (rating) [5]: below normal | RDW (red cell distribution width) [5]: 16.4% | Testosterone, free and total (rating) [5]: abnormally low | bone age [5]: ~14 year | bone age delay compared to CA (x-ray hand and wrist) [5]: ~2 yrs | bone age, standard deviation below the mean [5]: greater than 2 standard deviation | events that led to discontinuation [5]: scoliosis of the thoracic region, kyphosis of the upper cervical region, and hip flexion contractures | hyperphosphatemia [5]: Transient hyperphosphatemia | lumbar spine bone density, standard deviations below mean for age-matched population [5]: 3.8 standard deviations | mean bone density value for the lumbar spine (Dexa) [5]: 0.6322 gm/sq·cm | musculoskeletal problems [5]: rapid growth and kyphosis/scoliosis which required surgery | x-ray hand and wrist finding: osteochondrosis [5]: A suggestion of osteochondrosis | x-ray hand and wrist finding: periosteal reaction [5]: Periosteal reaction (distal radius, ulna, first metacarpal) | adverse events that led to dose reduction ([5]; po): musculoskeletal pain and high phosphorus levels | cell survival (WST-1) ([6]; 0-300 nM, 1-5 days, serum-free media, 5×10^4 cells/well): dose-dependently decreased survival | survival of erdafitinib-treated cells with growth factors (WST-1) ([6]; IGF-I 100 ng/ml, IGF2 100 ng/ml or FGF2 40 ng/ml, over 5 days): IGF-I, but not FGF2, has significant protective effects
